Here are results for 22 compounds from patent publication US20150322051A1, “Macrocyclic picolinamides as fungicides” (Dow AgroSciences LLC, priority 2014, published 2015).

For assay [1], the system named is Mycosphaerella graminicola; anamorph: Septoria tritici (SEPTTR). Briefly: Leaf blotch of wheat (SEPTTR) whole-plant fungicidal test. In kind it is in vivo. Conditions: Zymoseptoria tritici, topical, low volume (track spray) application, 121.5 g/H. The method, then: (§1) All fungicides were evaluated using the aforementioned method for their activity vs. all target diseases, unless stated otherwise. Wheat leaf blotch and brown rust activity were also evaluated using track spray applications, in which case the fungicides were formulated as EC formulations, containing 0.1% Trycol 5941 in the spray solutions. Wheat plants (variety Yuma) were grown from seed in a greenhouse in 50% mineral soil/50% soil-less Metro mix until the first leaf was fully emerged, with 7-10 seedlings per pot. These plants were inoculated with an aqueous spore suspension of Septoria tritici either prior to or after fungicide treatments. After inoculation the plants were kept in 100% relative humidity (one day in a dark dew chamber followed by two to three days in a lighted dew chamber at 20° C.) to permit spores to germinate and infect the leaf. The plants were then transferred to a greenhouse set at 20° C. for disease to develop. When disease symptoms were fully expressed on the 1st leaves of untreated plants, infection levels were assessed on a scale of 0 to 100 percent disease severity. Percent disease control was calculated using the ratio of disease severity on treated plants relative to untreated plants.

Assay [2] deals with Puccinia triticina; synonym: Puccinia recondita f. sp. tritici (PUCCRT). Briefly: Wheat brown rust (PUCCRT) whole-plant fungicidal test. The conditions noted are these: topical, low volume (track spray) application, 121.5 g/H. Format: in vivo. As for the experimental part: as §1, with “plants. Wheat plants (variety Yuma) were grown from seed in a greenhouse in 50% mineral soil/50% soil-less Metro mix until the first leaf was fully emerged, with 7-10 seedlings per pot. These plants were inoculated with an aqueous spore suspension of Puccinia triticina either prior to or after fungicide treatments. […] The plants were then transferred to a greenhouse set at 24° C. for disease to develop. Fungicide formulation, application and disease assessment followed the procedures as described in the Example A.” for “plants.”

[3] abbreviates: 24 h, 1 Day Protectant, read-out: Low Volume activity at 121.5 g/H SEPTTR 1DP (% disease control rating).
The mark [4] stands for this setting: 72 h, 3 Day Curative, read-out: Low Volume activity at 121.5 g/H SEPTTR 3DC (% disease control rating).
The mark [5] stands for this setting: 24 h, 1 Day Protectant, read-out: Low Volume activity at 121.5 g/H PUCCRT 1DP (% disease control rating).
The mark [6] stands for this setting: 72 h, 3 Day Curative, read-out: Low Volume activity at 121.5 g/H PUCCRT 3DC (% disease control rating).

Where two headings read alike, the source gives them in different places.

Consider `COc1ccnc(C(=O)N[C@H]2CCC[C@H](Cc3ccc(C(F)(F)F)cc3)[C@@H](CC(C)C)[C@H](C)OC2=O)c1OCOC(C)=O` [Compound 23], for which the pest or weed control at 121.5 g/ha in assay [1] (setting [3]) was greater than 70%; in assay [1] (setting [4]) it was less than 70%; in assay [2] (setting [5]), greater than 70%; in assay [2] (setting [6]), less than 70%.

As for `COc1ccnc(C(=O)N[C@H]2CCC[C@H](Cc3ccc(C(F)(F)F)cc3)[C@@H](CC(C)C)[C@H](C)OC2=O)c1OCOC(=O)C(C)C` [Compound 24], the pest or weed control at 121.5 g/ha in assay [1] (setting [3]) was greater than 70%; in assay [1] (setting [4]), less than 70%; in assay [2] (setting [5]), less than 70%; in assay [2] (setting [6]), less than 70%.

As to `COc1ccnc(C(=O)N[C@H]2CCC[C@H](Cc3ccc(C(F)(F)F)cc3)[C@@H](Cc3ccccc3)[C@H](C)OC2=O)c1OC(C)=O` [Compound 25], the pest or weed control at 121.5 g/ha in assay [1] (setting [3]), in assay [1] (setting [4]), in assay [2] (setting [5]) and in assay [2] (setting [6]) was less than 70% in each case.

Take `COc1ccnc(C(=O)N[C@H]2CCC[C@H](Cc3ccc(C(F)(F)F)cc3)[C@@H](Cc3ccccc3)[C@H](C)OC2=O)c1OCOC(C)=O` [Compound 26]: the pest or weed control at 121.5 g/ha was greater than 70% in assay [1] (setting [3]), less than 70% in assay [1] (setting [4]), greater than 70% in assay [2] (setting [5]) and less than 70% in assay [2] (setting [6]).

Regarding `COc1ccnc(C(=O)N[C@H]2CCC[C@H](Cc3ccc(C(F)(F)F)cc3)[C@@H](Cc3ccccc3)[C@H](C)OC2=O)c1OCOC(=O)C(C)C` [Compound 27], the pest or weed control at 121.5 g/ha is greater than 70% in assay [1] (setting [3]), less than 70% in assay [1] (setting [4]), greater than 70% in assay [2] (setting [5]) and less than 70% in assay [2] (setting [6]).

Turning to `COc1ccnc(C(=O)N[C@H]2CCC[C@H](Cc3ccc(Cl)cc3)[C@@H](C3CCCC3)[C@H](C)OC2=O)c1OC(C)=O` [Compound 28], the pest or weed control at 121.5 g/ha in assay [1] (setting [3]) was greater than 70%; in assay [1] (setting [4]), greater than 70%; in assay [2] (setting [5]), greater than 70%; in assay [2] (setting [6]), less than 70%.

As for `COc1ccnc(C(=O)N[C@H]2CCC[C@H](Cc3ccc(Cl)cc3)[C@@H](C3CCCC3)[C@H](C)OC2=O)c1OCOC(C)=O` [Compound 29], the pest or weed control at 121.5 g/ha in assay [1] (setting [3]) is greater than 70%; in assay [1] (setting [4]), greater than 70%; in assay [2] (setting [5]), greater than 70%; in assay [2] (setting [6]) it was less than 70%.

Consider `COc1ccnc(C(=O)N[C@H]2CCC[C@H](Cc3ccc(Cl)cc3)[C@@H](C3CCCC3)[C@H](C)OC2=O)c1OCOC(=O)C(C)C` [Compound 30], for which the pest or weed control at 121.5 g/ha in assay [1] (setting [3]) is greater than 70%; in assay [1] (setting [4]) it was greater than 70%; in assay [2] (setting [5]), less than 70%; in assay [2] (setting [6]), less than 70%.

`CCOCC(=O)OCOc1c(OC)ccnc1C(=O)N[C@H]1CCC[C@H](Cc2ccc(Cl)cc2)[C@@H](C2CCCC2)[C@H](C)OC1=O` [Compound 31]: the pest or weed control at 121.5 g/ha in assay [1] (setting [3]) is greater than 70%; in assay [1] (setting [4]) it was greater than 70%; in assay [2] (setting [5]) it was greater than 70%; in assay [2] (setting [6]), less than 70%.

Turning to `COc1ccnc(C(=O)N[C@H]2CCC[C@H](CCCc3ccccc3)[C@@H](CCc3ccccc3)[C@H](C)OC2=O)c1OCOC(C)=O` [Compound 32], the pest or weed control at 121.5 g/ha in assay [1] (setting [3]) is greater than 70%; in assay [1] (setting [4]) it was less than 70%; in assay [2] (setting [5]) it was greater than 70%; in assay [2] (setting [6]) it was less than 70%.

On to `COc1ccnc(C(=O)N[C@H]2CCC[C@H](CCCc3ccccc3)[C@@H](CCc3ccccc3)[C@H](C)OC2=O)c1OC(C)=O` [Compound 33], for which the pest or weed control at 121.5 g/ha was greater than 70% in assay [1] (setting [3]), less than 70% in assay [1] (setting [4]), less than 70% in assay [2] (setting [5]) and less than 70% in assay [2] (setting [6]).

With `COc1ccnc(C(=O)N[C@H]2CCC[C@H](CCC(C)C)[C@@H](CCc3ccccc3)[C@H](C)OC2=O)c1OCOC(C)=O` [Compound 34], the pest or weed control at 121.5 g/ha in assay [1] (setting [3]) is greater than 70%; in assay [1] (setting [4]), greater than 70%; in assay [2] (setting [5]) it was greater than 70%; in assay [2] (setting [6]), less than 70%.

Turning to `CCOCC(=O)OCOc1c(OC)ccnc1C(=O)N[C@H]1CCC[C@H](CCC(C)C)[C@@H](CCc2ccccc2)[C@H](C)OC1=O` [Compound 35], the pest or weed control at 121.5 g/ha in assay [1] (setting [3]) is greater than 70%; in assay [1] (setting [4]) it was greater than 70%; in assay [2] (setting [5]), greater than 70%; in assay [2] (setting [6]) it was less than 70%.

On to `COc1ccnc(C(=O)N[C@H]2CCC[C@H](CCC(C)C)[C@@H](CCc3ccccc3)[C@H](C)OC2=O)c1OC(C)=O` [Compound 36], for which the pest or weed control at 121.5 g/ha was greater than 70% in assay [1] (setting [3]), greater than 70% in assay [1] (setting [4]), greater than 70% in assay [2] (setting [5]) and less than 70% in assay [2] (setting [6]).

With `CCC[C@H]1CCC[C@H](NC(=O)c2nccc(OC)c2OCOC(C)=O)C(=O)O[C@@H](C)[C@@H]1Cc1ccccc1` [Compound 37], the pest or weed control at 121.5 g/ha in assay [1] (setting [3]), in assay [1] (setting [4]), in assay [2] (setting [5]) and in assay [2] (setting [6]) was greater than 70% throughout.

As to `CCC[C@H]1CCC[C@H](NC(=O)c2nccc(OC)c2OC(C)=O)C(=O)O[C@@H](C)[C@@H]1Cc1ccccc1` [Compound 38], the pest or weed control at 121.5 g/ha in assay [1] (setting [3]), in assay [1] (setting [4]), in assay [2] (setting [5]) and in assay [2] (setting [6]) was greater than 70% in each case.

Take `COc1ccnc(C(=O)N[C@H]2CCC[C@H](Cc3ccc(C(F)(F)F)cc3)[C@@H](Cc3ccc(F)cc3)[C@H](C)OC2=O)c1OCOC(C)=O` [Compound 39]: the pest or weed control at 121.5 g/ha in assay [1] (setting [3]) is greater than 70%; in assay [1] (setting [4]) it was greater than 70%; in assay [2] (setting [5]) it was less than 70%; in assay [2] (setting [6]) it was less than 70%.

As to `COc1ccnc(C(=O)N[C@H]2CCC[C@H](Cc3ccc(C(F)(F)F)cc3)[C@@H](Cc3ccc(F)cc3)[C@H](C)OC2=O)c1OC(C)=O` [Compound 40], the pest or weed control at 121.5 g/ha is greater than 70% in assay [1] (setting [3]), less than 70% in assay [1] (setting [4]), less than 70% in assay [2] (setting [5]) and less than 70% in assay [2] (setting [6]).

Regarding `COc1ccnc(C(=O)N[C@H]2CCC[C@H](Cc3ccc(C(F)(F)F)cc3)[C@@H](Cc3ccc(F)cc3)[C@H](C)OC2=O)c1OCOC(=O)C(C)C` [Compound 41], the pest or weed control at 121.5 g/ha in assay [1] (setting [3]), in assay [1] (setting [4]), in assay [2] (setting [5]) and in assay [2] (setting [6]) was less than 70% each time.

For the compound `COc1ccnc(C(=O)N[C@H]2CCC[C@H](CCC(C)C)[C@@H](C3CCCC3)[C@H](C)OC2=O)c1OCOC(C)=O` [Compound 42], the pest or weed control at 121.5 g/ha in assay [1] (setting [3]) is greater than 70%; in assay [1] (setting [4]), greater than 70%; in assay [2] (setting [5]), greater than 70%; in assay [2] (setting [6]), less than 70%.

In the case of `COc1ccnc(C(=O)N[C@H]2CCC[C@H](CCC(C)C)[C@@H](C3CCCC3)[C@H](C)OC2=O)c1OC(C)=O` [Compound 43], the pest or weed control at 121.5 g/ha in assay [1] (setting [3]) is greater than 70%; in assay [1] (setting [4]), greater than 70%; in assay [2] (setting [5]), greater than 70%; in assay [2] (setting [6]), less than 70%.

Consider `COc1ccnc(C(=O)N[C@H]2CCC[C@H](CCC(C)C)[C@@H](C3CCCC3)[C@H](C)OC2=O)c1OCOC(=O)C(C)C` [Compound 44], for which the pest or weed control at 121.5 g/ha in assay [1] (setting [3]) is greater than 70%; in assay [1] (setting [4]) it was greater than 70%; in assay [2] (setting [5]), greater than 70%; in assay [2] (setting [6]) it was less than 70%.
